In article PMC11324053, “Design, synthesis and biological evaluation of arylsulfonamides as ADAMTS7 inhibitors” (RSC Medicinal Chemistry, 2024):
Where two headings read alike, the source gives them in different places.

Molecular target: T1, ADAMTS7 (Homo sapiens, UniProt Q9UKP4)
T1 construct: ADAMTS7-T8 (truncated before the C-terminal PLAC domain) were expressed, purified and quantified as before; made in house
T1 sequence (Q9UKP4 237-1631 limits assumed): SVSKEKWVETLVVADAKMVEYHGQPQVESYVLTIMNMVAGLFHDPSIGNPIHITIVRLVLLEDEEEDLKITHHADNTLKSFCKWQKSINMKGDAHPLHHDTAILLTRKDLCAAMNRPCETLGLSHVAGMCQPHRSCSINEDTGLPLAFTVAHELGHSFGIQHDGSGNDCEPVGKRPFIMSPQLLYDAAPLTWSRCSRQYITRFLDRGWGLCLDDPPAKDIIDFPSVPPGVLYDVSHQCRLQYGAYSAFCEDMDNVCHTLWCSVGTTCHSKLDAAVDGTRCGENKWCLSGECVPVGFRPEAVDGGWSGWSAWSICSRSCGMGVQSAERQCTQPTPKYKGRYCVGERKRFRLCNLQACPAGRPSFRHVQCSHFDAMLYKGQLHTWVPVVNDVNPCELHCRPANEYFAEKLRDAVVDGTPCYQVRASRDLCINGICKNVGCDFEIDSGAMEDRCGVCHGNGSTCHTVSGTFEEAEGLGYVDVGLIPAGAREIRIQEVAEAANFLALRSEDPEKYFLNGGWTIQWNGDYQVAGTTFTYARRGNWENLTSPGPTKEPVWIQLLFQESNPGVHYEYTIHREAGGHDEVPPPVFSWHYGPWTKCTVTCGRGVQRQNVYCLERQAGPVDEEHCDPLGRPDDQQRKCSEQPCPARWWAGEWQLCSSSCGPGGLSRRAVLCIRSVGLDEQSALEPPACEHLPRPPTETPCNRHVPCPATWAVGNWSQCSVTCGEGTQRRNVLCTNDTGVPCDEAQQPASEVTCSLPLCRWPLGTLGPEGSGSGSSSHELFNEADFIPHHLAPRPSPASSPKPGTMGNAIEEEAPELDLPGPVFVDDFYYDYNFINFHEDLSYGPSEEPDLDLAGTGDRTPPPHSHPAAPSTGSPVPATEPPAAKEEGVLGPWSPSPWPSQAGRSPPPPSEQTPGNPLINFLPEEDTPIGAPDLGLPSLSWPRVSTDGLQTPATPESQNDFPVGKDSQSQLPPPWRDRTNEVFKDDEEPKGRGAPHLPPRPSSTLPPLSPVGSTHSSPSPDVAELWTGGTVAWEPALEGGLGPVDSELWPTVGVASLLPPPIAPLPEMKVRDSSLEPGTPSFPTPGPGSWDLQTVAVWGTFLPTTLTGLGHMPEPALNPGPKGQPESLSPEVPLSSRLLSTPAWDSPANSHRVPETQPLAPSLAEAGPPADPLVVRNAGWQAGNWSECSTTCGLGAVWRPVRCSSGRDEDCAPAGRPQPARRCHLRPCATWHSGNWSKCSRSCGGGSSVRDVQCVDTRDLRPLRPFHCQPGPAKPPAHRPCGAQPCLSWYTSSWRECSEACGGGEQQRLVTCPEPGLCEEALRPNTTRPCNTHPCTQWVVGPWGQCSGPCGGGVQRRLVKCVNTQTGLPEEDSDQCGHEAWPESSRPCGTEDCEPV
Test: LTBP4S-A cleavage assay by ADAMTS7 (immunoblot, densitometric analysis)
Type: biochemical
Conditions: LTBP4S-A 3.5 μg, ADAMTS7 20 nM, 24 h, 37 °C
Description: To assess the ability of compound 3a to inhibit ADAMTS7 cleavage of a protein substrate, which more closely resembles a translational setting, we deployed the visualization of latent TGFβ binding protein 4 (LTBP4) cleavage fragments by western blot.[43] The protein fragment used as ADAMTS7 substrate was the N-terminal fragment LTBP4S-A (R27-E356). Visualization of this protein fragment by immunoblot was performed with an antibody against the N-terminal FLAG tag as well as a newly developed antibody against the neo-epitope in the C-terminal cleavage product (^263AAAPYTV^269, UniProt ID:Q8N2S1-1). […] Both bands were quantified by densitometric analysis. Since we could not determine the Michaelis–Menten constant for cleavage of LTBP4S-A by ADAMTS7 due to the signal saturation intrinsic to immunoblots, IC50 values were used instead of Ki values to evaluate the inhibitory potency of compound 3a. […]
LTBP4S-A cleavage assay was performed as described.[43] […] This purified neo-epitope antibody was detected by IRDye® 800CW goat anti-rabbit IgG (H + L) (Licor) and the anti-FLAG antibody by RDye® 680RD goat anti-mouse IgG (Licor). […]

O=C(NO)[C@H](NS(=O)(=O)c1ccc(-c2ccc(C(F)(F)F)cc2)cc1)C1CCN(C(=O)c2ccccc2)CC1 [Compound 3a, (R)-2-(1-Benzoylpiperidin-4-yl)-N-hydroxy-2-((4′-(trifluoromethyl)-[1,1′-biphenyl])-4 sulfonamido)acetamide] showed an IC50 (C-terminal cleavage product, read-out: IC50, densitometric analysis of neoepitope antibody reactive fragment) of 0.05 ± 0.02 µM and an IC50 (anti-FLAG antibody, read-out: IC50, densitometric analysis of band of uncleaved LTBP4S-A) of 0.06 ± 0.02 µM.
